Test results reported in PubChem BioAssay (NCI).
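Values below derive from 48-hour exposures of cells grown in 96-well plates, with endpoints linearly interpolated between the two concentrations bracketing the appropriate inhibition level. GI50 is the concentration that inhibits growth by half. TGI: total growth inhibition.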

Tests used:
Assay in all cases: NCI-60 cell line screen, 48 h
SF-295 CNS = system: SF-295 CNS
A498 renal = system: A498 renal
RXF 393 renal = system: RXF 393 renal
UACC-257 melanoma = system: UACC-257 melanoma
K-562 leukemia = system: K-562 leukemia
KM12 colon = system: KM12 colon
OVCAR-5 ovarian = system: OVCAR-5 ovarian
T-47D breast = system: T-47D breast
NCI-H460 lung = system: NCI-H460 lung
CAKI-1 renal = system: CAKI-1 renal

Structure (SMILES): CCN(C(=O)CCl)C(C)(C)C(SSSC(c1ccc(Cl)cc1)C(C)(C)N(CC)C(=O)CCl)c1ccc(Cl)cc1 (centres undefined)
- GI50 (SF-295 CNS): 2.99 µM
- TGI (SF-295 CNS): 8.93 µM
- GI50 (A498 renal): 1.9 µM
- TGI (A498 renal): 7.42 µM
- GI50 (RXF 393 renal): 2.95 µM
- TGI (RXF 393 renal): 13.8 µM
- GI50 (UACC-257 melanoma): 1.82 µM
- TGI (UACC-257 melanoma): 3.48 µM
- GI50 (K-562 leukemia): 1.71 µM
- TGI (K-562 leukemia): 3.59 µM
- GI50 (KM12 colon): 10.3 µM
- TGI (KM12 colon): 23 µM
- GI50 (OVCAR-5 ovarian): 13.8 µM
- TGI (OVCAR-5 ovarian): 27.9 µM
- GI50 (T-47D breast): 5.3 µM
- TGI (T-47D breast): 26.3 µM
- GI50 (NCI-H460 lung): 7.34 µM
- TGI (NCI-H460 lung): 20.9 µM
- GI50 (CAKI-1 renal): 4.09 µM
- TGI (CAKI-1 renal): 15.4 µM

Structure (SMILES): ICCC(c1ccccc1)(c1ccccc1)c1ccccc1
- GI50 (SF-295 CNS): 2.02 µM
- TGI (SF-295 CNS): 5.07 µM
- GI50 (RXF 393 renal): 8.9 µM
- TGI (RXF 393 renal): 22.8 µM
- GI50 (UACC-257 melanoma): 1.7 µM
- TGI (UACC-257 melanoma): 3.35 µM
- GI50 (K-562 leukemia): 1.67 µM
- TGI (K-562 leukemia): 4.93 µM
- GI50 (KM12 colon): 4.45 µM
- TGI (KM12 colon): 15.4 µM
- GI50 (OVCAR-5 ovarian): 13.4 µM
- TGI (OVCAR-5 ovarian): 27.1 µM
- GI50 (T-47D breast): 14 µM
- TGI (T-47D breast): 34.1 µM
- GI50 (CAKI-1 renal): 3.83 µM
- TGI (CAKI-1 renal): 17.1 µM

Structure (SMILES): COc1cc2ccnc3c2c(c1OC)-c1ccc(=O)ccc1-3
- GI50 (SF-295 CNS): 23.2 µM
- TGI (SF-295 CNS): 67.8 µM
- GI50 (RXF 393 renal): 18.7 µM
- TGI (RXF 393 renal): 77 µM
- GI50 (UACC-257 melanoma): 25.4 µM
- TGI (UACC-257 melanoma): 63.5 µM
- GI50 (K-562 leukemia): 14.5 µM
- TGI (K-562 leukemia): 35.5 µM
- GI50 (KM12 colon): 43.6 µM
- TGI (KM12 colon): > 100 µM
- GI50 (OVCAR-5 ovarian): 51.7 µM
- TGI (OVCAR-5 ovarian): > 100 µM
- GI50 (T-47D breast): 27.6 µM
- TGI (T-47D breast): 65.5 µM
- GI50 (NCI-H460 lung): 20.7 µM
- TGI (NCI-H460 lung): > 100 µM
- GI50 (CAKI-1 renal): 16.5 µM
- TGI (CAKI-1 renal): 39.5 µM

Structure (SMILES): Nc1c(C(=O)c2cccc(C#CCN3CCOCC3)c2)cnn1-c1ccc(F)cc1
- GI50 (SF-295 CNS): > 6.3 µM
- TGI (SF-295 CNS): > 25 µM
- GI50 (A498 renal): 11.1 µM
- TGI (A498 renal): > 25 µM
- GI50 (RXF 393 renal): > 25 µM
- TGI (RXF 393 renal): > 25 µM
- GI50 (UACC-257 melanoma): > 18.6 µM
- TGI (UACC-257 melanoma): > 25 µM
- GI50 (K-562 leukemia): 7.91 µM
- TGI (K-562 leukemia): > 25 µM
- GI50 (KM12 colon): 8.29 µM
- TGI (KM12 colon): > 25 µM
- GI50 (OVCAR-5 ovarian): > 25 µM
- TGI (OVCAR-5 ovarian): > 25 µM
- GI50 (T-47D breast): 8.83 µM
- TGI (T-47D breast): > 25 µM
- GI50 (NCI-H460 lung): > 16.5 µM
- TGI (NCI-H460 lung): > 25 µM
- GI50 (CAKI-1 renal): > 16 µM
- TGI (CAKI-1 renal): > 25 µM

Structure (SMILES): O=C(O)c1ccc(NCc2nc3cc4ccccc4cc3[nH]2)cc1
- TGI (SF-295 CNS): > 100 µM
- TGI (A498 renal): > 100 µM
- TGI (RXF 393 renal): > 100 µM
- TGI (UACC-257 melanoma): 25.9 µM
- TGI (K-562 leukemia): > 100 µM
- TGI (KM12 colon): > 100 µM
- TGI (OVCAR-5 ovarian): > 100 µM
- TGI (T-47D breast): > 100 µM
- TGI (NCI-H460 lung): > 100 µM
- TGI (CAKI-1 renal): > 100 µM

Structure (SMILES): C[C@]12CCC3c4ccc(O)cc4CCC3C1Cc1ccc(O)cc12 (some centres undefined)
- GI50 (SF-295 CNS): 12.8 µM
- TGI (SF-295 CNS): 34.2 µM
- GI50 (A498 renal): 6.18 µM
- TGI (A498 renal): 19.7 µM
- GI50 (UACC-257 melanoma): 14.4 µM
- TGI (UACC-257 melanoma): 28.5 µM
- GI50 (K-562 leukemia): 0.794 µM
- TGI (K-562 leukemia): 11.2 µM
- GI50 (KM12 colon): 3.4 µM
- TGI (KM12 colon): 20.6 µM
- GI50 (OVCAR-5 ovarian): 14.5 µM
- TGI (OVCAR-5 ovarian): 27.6 µM
- GI50 (T-47D breast): 13.1 µM
- TGI (T-47D breast): 30.9 µM
- GI50 (NCI-H460 lung): 4.88 µM
- TGI (NCI-H460 lung): 18.2 µM
- GI50 (CAKI-1 renal): 10.8 µM
- TGI (CAKI-1 renal): 45.6 µM

Structure (SMILES): N#CSCc1c(Cl)cccc1Cl
- GI50 (SF-295 CNS): 16.2 µM
- TGI (SF-295 CNS): > 91.4 µM
- GI50 (A498 renal): 4.76 µM
- TGI (A498 renal): 19.6 µM
- GI50 (RXF 393 renal): 2.54 µM
- TGI (RXF 393 renal): 7.24 µM
- GI50 (UACC-257 melanoma): 10.9 µM
- TGI (UACC-257 melanoma): > 81.3 µM
- GI50 (K-562 leukemia): 0.359 µM
- TGI (K-562 leukemia): 16.3 µM
- GI50 (OVCAR-5 ovarian): 7.41 µM
- TGI (OVCAR-5 ovarian): > 100 µM
- GI50 (T-47D breast): 13.3 µM
- TGI (T-47D breast): > 96.1 µM
- GI50 (NCI-H460 lung): 4.29 µM
- TGI (NCI-H460 lung): > 53.4 µM
- GI50 (CAKI-1 renal): 0.309 µM
- TGI (CAKI-1 renal): > 20.2 µM

Structure (SMILES): CN1CCN(Cc2ccc(NC(=O)c3nc4ccc5[nH]ncc5c4c4c3CCC4)cc2C(F)(F)F)CC1
- GI50 (SF-295 CNS): 6.97 µM
- TGI (SF-295 CNS): 13.8 µM
- GI50 (A498 renal): 6.62 µM
- TGI (A498 renal): 13.4 µM
- GI50 (RXF 393 renal): 1.19 µM
- TGI (RXF 393 renal): 4.37 µM
- GI50 (UACC-257 melanoma): 0.99 µM
- TGI (UACC-257 melanoma): 2.01 µM
- GI50 (K-562 leukemia): 0.978 µM
- TGI (K-562 leukemia): 2.39 µM
- GI50 (KM12 colon): 0.957 µM
- TGI (KM12 colon): 1.91 µM
- GI50 (OVCAR-5 ovarian): 0.994 µM
- TGI (OVCAR-5 ovarian): 2.41 µM
- GI50 (T-47D breast): 1.07 µM
- TGI (T-47D breast): 2.84 µM
- GI50 (NCI-H460 lung): 0.926 µM
- TGI (NCI-H460 lung): 1.73 µM
- GI50 (CAKI-1 renal): 0.815 µM
- TGI (CAKI-1 renal): 1.56 µM

Structure (SMILES): O=C(OCC1OC(OC(=O)c2cc(O)c(O)c(OC(=O)c3cc(O)c(O)c(O)c3)c2)C(OC(=O)c2cc(O)c(O)c(OC(=O)c3cc(O)c(O)c(O)c3)c2)C(OC(=O)c2cc(O)c(O)c(OC(=O)c3cc(O)c(O)c(O)c3)c2)C1OC(=O)c1cc(O)c(O)c(OC(=O)c2cc(O)c(O)c(O)c2)c1)c1cc(O)c(O)c(OC(=O)c2cc(O)c(O)c(O)c2)c1 (centres undefined)
- GI50 (SF-295 CNS): 8.65 µM
- TGI (SF-295 CNS): 22.9 µM
- GI50 (RXF 393 renal): 30.3 µM
- TGI (RXF 393 renal): > 50 µM
- GI50 (UACC-257 melanoma): 20.9 µM
- TGI (UACC-257 melanoma): > 50 µM
- GI50 (K-562 leukemia): 25.3 µM
- TGI (K-562 leukemia): > 50 µM
- GI50 (KM12 colon): 7.23 µM
- TGI (KM12 colon): 27.1 µM
- GI50 (T-47D breast): 13 µM
- TGI (T-47D breast): > 50 µM
- GI50 (NCI-H460 lung): 4.14 µM
- TGI (NCI-H460 lung): 36 µM
- GI50 (CAKI-1 renal): 9.63 µM
- TGI (CAKI-1 renal): 47.5 µM

Structure (SMILES): O=C(O)C[O][Sb][O]CC(=O)O
- GI50 (SF-295 CNS): > 100 µM
- TGI (SF-295 CNS): > 100 µM
- GI50 (A498 renal): > 100 µM
- TGI (A498 renal): > 100 µM
- GI50 (RXF 393 renal): > 100 µM
- TGI (RXF 393 renal): > 100 µM
- GI50 (K-562 leukemia): > 100 µM
- TGI (K-562 leukemia): > 100 µM
- GI50 (KM12 colon): > 100 µM
- TGI (KM12 colon): > 100 µM
- GI50 (OVCAR-5 ovarian): > 100 µM
- TGI (OVCAR-5 ovarian): > 100 µM
- GI50 (T-47D breast): > 100 µM
- TGI (T-47D breast): > 100 µM
- GI50 (NCI-H460 lung): > 100 µM
- TGI (NCI-H460 lung): > 100 µM
- GI50 (CAKI-1 renal): > 100 µM
- TGI (CAKI-1 renal): > 100 µM
